{
  "source": "patent US5183736A",
  "about": "“Methods using estrogen receptor as a constitutive transcriptional activator and a repressor” (La Jolla Cancer Research Foundation, priority 1990, dated 1993)",
  "molecules": {"B1": {"name": "ERE palindrome (dsDNA)", "DNA 1": "TCAGGTCACTGTGACCTGA", "DNA 2": "TCAGGTCACAGTGACCTGA"}},
  "key": {"[1]": {"target": "human estrogen receptor (ER, wild type, GLY at position 400) (Homo sapiens, UniProt P03372)", "sequence (P03372 whole entry)": "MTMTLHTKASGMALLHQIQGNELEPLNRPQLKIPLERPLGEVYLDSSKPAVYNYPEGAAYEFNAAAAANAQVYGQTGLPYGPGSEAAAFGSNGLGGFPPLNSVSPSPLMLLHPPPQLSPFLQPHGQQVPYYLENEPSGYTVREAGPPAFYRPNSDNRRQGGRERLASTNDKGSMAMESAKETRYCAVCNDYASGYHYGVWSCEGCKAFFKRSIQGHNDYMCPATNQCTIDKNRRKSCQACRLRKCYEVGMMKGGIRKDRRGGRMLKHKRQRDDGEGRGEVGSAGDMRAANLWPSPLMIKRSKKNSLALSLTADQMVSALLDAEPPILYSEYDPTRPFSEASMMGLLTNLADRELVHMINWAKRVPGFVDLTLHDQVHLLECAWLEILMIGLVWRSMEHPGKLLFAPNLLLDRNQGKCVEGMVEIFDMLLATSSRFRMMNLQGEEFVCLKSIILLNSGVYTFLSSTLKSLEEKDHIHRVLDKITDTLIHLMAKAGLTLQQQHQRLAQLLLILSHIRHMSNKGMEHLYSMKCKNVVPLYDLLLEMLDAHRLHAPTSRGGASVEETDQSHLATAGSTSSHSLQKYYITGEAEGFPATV", "description": "(§1) (a) Induction of CAT activity. CV-1 cells were transiently cotransfected with 2 μg of ERE-CAT reporter plasmid alone (control) or together with 1 μg of receptor expression vector and 3 μg of β-gal expression vector (pCH110, Pharmacia) which served as an internal control. Carrier DNA (Bluescript) was added to 23 μg total DNA. […] CAT activity is corrected for β-gal activity.\nCV-1 cells were cotransfected with 2 μg ERE reporter plasmid alone (control) and with decreasing amounts of ER expression vector as indicated. […] A representative experiment is shown.\n(§2) CV-1 cells were cotransfected as described under (a) using ER (c) or ERval (d) expression vectors and reporter plasmid.\n(§3) CV-1 cells were transiently cotransfected with ER or ERval expression vectors and reporter plasmid as described in FIG. 1. […] CAT enzyme activities presented are corrected for transfection efficiency by measuring β-gal expression.\nCV-1 cells were cotransfected as described above. […] CAT activities were measured as described.\nTo investigate the transcriptional regulatory properties of the human estrogen receptor, transient cotransfection experiments were carried out in which CV-1 cells were transfected with an estrogen receptor (ER) expression vector and an estrogen responsive CAT (chloramphenicol acetyl-transferase) reporter gene. We investigated the \"wild type\" receptor^9 that carries a GLY at position 400 (ER) and a mutant receptor that contains a VAL at position 400 (ERval). This mutant receptor was cloned from a human mammary carcinoma cell line cDNA library and was originally thought to represent the wild type hER^10,11. In addition we investigated another mutant receptor that we obtained by deleting the coding sequences for amino acids 442-498 (ERdel) of the hormone binding domain. The estrogen response element (ERE) we use here is a palindromic sequence ([…]) that is derived from the vitellogenin gene promoter^12.\n(§4) The transient transfection was performed as follows. […] After 24 h cultures were washed with PBS and new medium was added. A modified calcium phosphate precipitation procedure was used for transient transfection^20. 18 h after transfections, cultures were washed twice with PBS, and fresh medium was added together with the desired amount of hormone. After 24 h. cells were collected and cell extract was prepared. β-gal assay was performed as described^21. CAT activity was assayed by using ^3 H-acetylated chloramphenicol and a mixed-phase scintillation measurement, as described in reference 22, below. CPM corrected for β-gal activity represents relative CAT activity. ERE-CAT was constructed by inserting the above synthetic ERE-oligonucleotide with BglII linkers into the BamH1 site of pBLCAT2^23."}, "[2]": {"system": "mutant estrogen receptor ERval (VAL at position 400)", "test": "transient cotransfection ERE-CAT reporter assay in CV-1 cells, ERval", "type": "cell-based, human", "description": "as §1, §2, §3\nTo investigate the transcriptional regulatory properties of the human estrogen receptor, transient cotransfection experiments were carried out in which CV-1 cells were transfected with an estrogen receptor (ER) expression vector and an estrogen responsive CAT (chloramphenicol acetyl-transferase) reporter gene. We investigated the \"wild type\" receptor^9 that carries a GLY at position 400 (ER) and a mutant receptor that contains a VAL at position 400 (ERval). This mutant receptor was cloned from a human mammary carcinoma cell line cDNA library and was originally thought to represent the wild type hER^10,11. […]"}, "[3]": {"system": "ERval", "test": "gel retardation assay, ERval binding to 32P-labelled ERE", "parameters": "species or system human", "details": "for effect on binding of ERval to the ERE: high concentrations, FIG. 2b", "description": "(§5) (a) DNA binding of ER and ER mutants. […] As control, the labelled ERE (lane 1) and the lysate (lane 2) were run alone. Binding of receptors to labelled ERE was competed with 50 fold excess of unlabelled ERE(S) or nonspecific unlabelled oligonucleotides (N).\n(§6) To investigate the ER protein-DNA interaction gel retardation assays were performed^5,13. Receptor proteins were synthesized by in vitro transcription/translation^5,7, incubated with ^32 P-labelled ERE, and run on a non-denaturing acrylamide gel (FIG. 2a). The assay was performed as follows. ER and ERval cDNA cloned in Bluescript (Stratagene) were transcribed using T7 or T3 RNA polymerase, and translated, using rabbit reticulocyte translation system (Promega) as described^5. 5 μl of in vitro translated receptor protein were incubated with ^32 P labeled ERE fragment in a reaction mixture containing 20 mM Hepes buffer pH 7.9, 50 mM KCl, 1 mM DTT, 2.5 mM MgCl2, 10% glycerol, and 1 μg poly (dI-dC) at 25° C. for 20 min. Reaction mixtures were loaded on a 5% non-denaturing polyacrylamide gel containing 10 mM HEPES pH 7.9 and 3.3 mM sodium acetate pH 7.9, and electrophoresed. Gels were run at 4° C., 140 V for 3 h with continued circulation of buffer."}, "[4]": {"target": "ER (Homo sapiens, UniProt P03372)", "sequence (P03372 whole entry)": "as above", "details": "10^-8 M OH-Tam, 10^-7 M T3, FIG. 5", "description": "(§7) A representative experiment is shown.\nas §4"}, "[5]": {"system": "ERval", "test": "repressor assay: ERval cotransfected with ER-TRα and ERE-CAT in CV-1 cells", "type": "cell-based, human", "details": "10^-8 M OH-Tam, 10^-7 M T3, FIG. 5", "description": "CAT activities were measured as described in the Example. A representative experiment is shown.\nThe transient transfection was performed as follows."}, "[6]": {"system": "ER-ERE complex", "test": "dissociation of the ER-ERE complex (gel retardation)", "type": "binding, human", "details": "10^-8 M ligand, 50 fold excess unlabelled ERE, 10° C., FIG. 6", "description": "At time 0, a 50 fold excess of non-labelled ERE was added. After incubation at 10° C. for the indicated time intervals, aliquots were loaded on a running non-denaturing 5% polyacrylamide gel.\nThe assay was performed as follows.\nTo measure the stability of the ER-ERE complexes in the presence and absence of ligands, the dissociation of the complexes was analyzed (FIG. 6)."}, "[7]": {"system": "ER-TRα hybrid receptor", "test": "ERE-CAT activation by hybrid receptor ER-TRα alone in CV-1 cells", "type": "cell-based, human", "details": "10^-7 M T3, FIG. 5", "description": "as §7, §4"}, "[8]": {"system": "ERdel", "details": "10^-8 M E2, FIG. 2a", "description": "as §5, §6"}, "[9]": {"system": "TRα-ERval hybrid receptor", "details": "10^-8 M E2, FIG. 4c", "description": "as §6"}, "[10]": {"target": "estrogen receptor alpha (ER, wild type, Gly400) (Homo sapiens, UniProt P03372 P03372:1-595)", "sequence (P03372 whole entry, one chain of several)": "as the sequence (P03372 whole entry) above", "test": "EMSA; strong with and without E2 or Tam; 20 mM Hepes pH 7.9, 50 mM KCl, 2.5 mM MgCl2, poly(dI-dC), 25 C; dissociation not substantially changed by E2 or OH-Tam (FIG.)", "details": "tags: rabbit reticulocyte lysate; chain copies: 2; label: 32P"}, "[11]": {"target": "ERval (estrogen receptor Val400) (Homo sapiens, UniProt P03372 P03372:1-595, G400V)", "sequence (P03372 whole entry G400V, one chain of several)": "as the sequence (P03372 whole entry) above, with G400V counted along it", "test": "EMSA; with E2", "details": "tags: rabbit reticulocyte lysate; chain copies: 2; label: 32P"}},
  "note": "“Also recorded” adds a separate entry of the source.",
  "data": [
    {"molecule": "4-hydroxytamoxifen [OH-Tam]", "values": [
      {"measurement": "OH-Tam concentration sufficient to repress E2 action on ER", "setting": "[1]", "result": "nanomolar concentrations"},
      {"measurement": "concentration dependence of the agonist effect on ER", "setting": "[1]", "result": "does not increase with increasing concentrations of ligand"},
      {"measurement": "effect on ER basal level activity", "setting": "[1]", "result": "do not significantly repress"},
      {"measurement": "effect on basal level activity of ER at very low receptor concentrations", "setting": "[1]", "result": "increases the basal level activity"},
      {"measurement": "effect on transcriptional enhancing activity of ER", "setting": "[1]", "result": "maintained at the constitutive basal level"},
      {"measurement": "effect on activation capacity of ERval", "setting": "[2]; OH-Tam 10^-8 M, no E2, FIG. 3a", "result": "restores the basal gene activation capacity; also recorded: increased by OH-Tam (10^-8 M) to the basal level of ER wild type"},
      {"measurement": "effect on ERval activation capacity in the presence of E2", "setting": "[2]; OH-Tam with E2 10^-8 M, FIG. 3a", "result": "reduced to the wild type basal level"},
      {"measurement": "effect on binding of ERval to the ERE", "setting": "[3]", "result": "drastically increase"},
      {"measurement": "effect on repression capacity of ER towards ER-TRα", "setting": "[4]", "result": "slightly increases"},
      {"measurement": "repression of ER-TRα activity by ERval", "setting": "[5]", "result": "restores the ability of ERval to repress; also recorded: only an efficient repressor of ER-TRα in the presence of OH-Tam"},
      {"measurement": "effect on dissociation of the ER-DNA complex", "setting": "[6]", "result": "no substantial difference"}
    ]},
    {"molecule": "CC/C(=C(\\c1ccccc1)c1ccc(OCCN(C)C)cc1)c1ccccc1", "note": "[Tam, tamoxifen]", "values": [
      {"measurement": "effect on binding of ERval to the ERE", "setting": "[3]", "result": "drastically increase"}
    ]},
    {"molecule": "N[C@@H](Cc1cc(I)c(Oc2ccc(O)c(I)c2)c(I)c1)C(=O)O", "note": "[T3]", "values": [
      {"measurement": "ERE-CAT gene expression by ER-TRα alone", "setting": "[7]", "result": "efficiently enhances"}
    ]},
    {"molecule": "C[C@]12CC[C@@H]3c4ccc(O)cc4CC[C@H]3[C@@H]1CC[C@@H]2O", "note": "[E2, estradiol]", "values": [
      {"measurement": "binding of ERval to ERE with E2", "setting": "[3]; 10^-8 M E2, FIG. 2a", "result": "binds strongly to ERE when E2 is included"},
      {"measurement": "binding of ERdel to DNA with and without E2", "setting": "[8]", "result": "binds poorly to DNA in the presence and absence of E2"},
      {"measurement": "increase of affinity of TRα-ERval for DNA (TRE)", "setting": "[9]", "result": "several fold"}
    ]},
    {"molecule": "B1", "values": [
      {"measurement": "binding result", "setting": "[10]", "result": "binds"},
      {"measurement": "binding result", "setting": "[11]", "result": "binds"}
    ]}
  ]
}
